Source: US8063065B2, “Azaindazole compounds as CCR1 receptor antagonists” (Boehringer Ingelheim International GmbH, priority 2008, dated 2011)

Biological target: T1, CCR1 (Homo sapiens, UniProt P32246)
T1 sequence (P32246 1-355): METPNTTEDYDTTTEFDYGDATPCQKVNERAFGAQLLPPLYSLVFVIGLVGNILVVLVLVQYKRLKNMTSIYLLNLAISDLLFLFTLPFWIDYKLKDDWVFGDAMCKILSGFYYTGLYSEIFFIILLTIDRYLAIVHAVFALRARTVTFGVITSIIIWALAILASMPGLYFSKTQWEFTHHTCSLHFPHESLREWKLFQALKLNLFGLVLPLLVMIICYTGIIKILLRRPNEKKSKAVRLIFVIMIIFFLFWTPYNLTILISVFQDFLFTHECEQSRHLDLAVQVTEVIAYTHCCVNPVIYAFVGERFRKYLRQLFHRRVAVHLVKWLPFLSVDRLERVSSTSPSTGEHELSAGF
Assay: Method A: calcium flux in CCR1 transfected cells (Fluo-4 NW, FLIPR TETRA), block of the CCR1/MIP-1α interaction
Type: cell-based
Conditions: Method A: Fluo-4 NW, MIP-1 alpha at EC80
Protocol: Compounds are assessed for the ability to block the interaction of CCR1 and MIP-1α in a functional cellular assay measuring calcium flux in CCR1 transfected cells.
Method A: Non-adherent cells purchased from Chemicon Corporation (HTS005C), stably expressing recombinant CCR1 and G-alpha-16 are grown in RPMI 1640 medium (Mediatech 10-080-CM) supplemented with 10% heat-inactivated FBS, 0.4 mg/mL Geneticin and penicillin/streptomycin. On the day of the assay, the cells are transferred to a beaker and dye-loaded in bulk using a Fluo-4 NW Calcium Assay Kit with probenecid (Invitrogen F36205) at 0.8E6 cells/mL for 1 hour at room temperature. After 1 hour, they are seeded in a 384-well tissue culture-treated plate at a density of 20,000 cells/well. Appropriately diluted test compound is added to the well to achieve a top concentration of 3,000 nM (diluted 4-fold with 10 doses total). The final concentration of DMSO is 1%. The buffer is HBSS (Invitrogen 14025) with 20 mM HEPES at pH 7.4. The cells are allowed to incubate 1 hour in the dark at room temperature. The plates are transferred to the FLIPR TETRA where MIP-1 alpha in 1% BSA is added at the EC80 final concentration. Wells+/−MIP-1 alpha containing diluted DMSO instead of compound serve as the controls. Intracellular calcium flux is recorded on the FLIPR TETRA, using excitation at 470/495 nm and emission at 515/575 nm. Data are analyzed using Activity Base software.

IC50 [nM] | SMILES
4 | CCC[C@H](NC(=O)c1cncc2c1cnn2-c1ccc(F)cc1)c1cncc(S(=O)(=O)O)c1 [5-((S)-1-{[1-(4-Fluorophenyl)-1H-pyrazolo[3,4-c]pyridine-4-carbonyl]-amino}-butyl)-pyridine-3-sulfonic acid]
17 | C=CC[C@@H](NC(=O)c1cncc2c1cnn2-c1ccc(F)cc1)c1ccnc(Br)c1 [1-(4-Fluorophenyl)-1H-pyrazolo[3,4-c]pyridine-4-carboxylic acid [(R)-1-(2-bromopyridin-4-yl)-but-3-enyl]-amide]
0.2 | CCC[C@H](NC(=O)c1cncc2c1cnn2-c1ccc(F)cc1)c1cncc(S(=O)(=O)NC)c1 [1-(4-Fluorophenyl)-1H-pyrazolo[3,4-c]pyridine-4-carboxylic acid [(S)-1-(5-methylsulfamoyl-pyridin-3-yl)-butyl]-amide]
0.4 | CCCC(NC(=O)c1cncc2c1cnn2-c1ccc(Cl)cc1)c1ccnc(S(C)(=O)=O)c1 (centres unmarked) [1-(4-Chlorophenyl)-1H-pyrazolo[3,4-c]pyridine-4-carboxylic acid [1-(2-methanesulfonyl-pyridin-4-yl)-butyl]-amide]
1 | C[C@H](NC(=O)c1cncc2c1cnn2-c1ccc(F)cc1)c1cncc(Br)c1 [1-(4-Fluorophenyl)-1H-pyrazolo[3,4-c]pyridine-4-carboxylic acid [(S)-1-(5-bromopyridin-3-yl)-ethyl]-amide]
0.3 | CCC[C@H](NC(=O)c1cncc2c1cnn2-c1ccc(F)cc1)c1cncc(S(N)(=O)=O)c1 [1-(4-Fluorophenyl)-1H-pyrazolo[3,4-c]pyridine-4-carboxylic acid [(S)-1-(5-sulfamoyl-pyridin-3-yl)-butyl]-amide]
5 | CCC[C@H](NC(=O)c1cncc2c1cnn2-c1ccc(F)cc1)c1cccnc1 [1-(4-Fluorophenyl)-1H-pyrazolo[3,4-c]pyridine-4-carboxylic acid ((S)-1-pyridin-3-yl-butyl)-amide]
3 | CCC(NC(=O)c1cncc2c1cnn2-c1ccc(F)cc1)c1ccc(S(C)(=O)=O)nc1 (centres unmarked) [1-(4-Fluorophenyl)-1H-pyrazolo[3,4-c]pyridine-4-carboxylic acid [1-(6-methanesulfonyl-pyridin-3-yl)-propyl]-amide]

The next lines start with the compound.

SMILES | IC50 [nM]
C[C@H](NC(=O)c1cncc2c1cnn2-c1ccc(Cl)cc1)c1cncc(Br)c1 [1-(4-Chlorophenyl)-1H-pyrazolo[3,4-c]pyridine-4-carboxylic acid [(S)-1-(5-bromopyridin-3-yl)-ethyl]-amide] | 2
O=C(NCc1cc(Cl)cc(Cl)c1)c1cncc2c1cnn2-c1ccc(F)cc1 [1-(4-Fluorophenyl)-1H-pyrazolo[3,4-c]pyridine-4-carboxylic acid 3,5-dichloro-benzylamide] | 7
CNS(=O)(=O)c1ccc(CNC(=O)c2cncc3c2cnn3-c2ccc(F)cc2)cc1OC [1-(4-Fluorophenyl)-1H-pyrazolo[3,4-c]pyridine-4-carboxylic acid 3-methoxy-4-methylsulfamoyl-benzylamide] | 3
CN(c1ccc(CNC(=O)c2cncc3c2cnn3-c2ccc(F)cc2)cn1)S(C)(=O)=O [1-(4-Fluorophenyl)-1H-pyrazolo[3,4-c]pyridine-4-carboxylic acid [6-(methanesulfonyl-methyl-amino)-pyridin-3-ylmethyl]-amide] | 5
CN(C1CCOCC1)S(=O)(=O)c1ccc(CNC(=O)c2cncc3c2cnn3-c2ccc(F)cc2)cc1 [1-(4-Fluorophenyl)-1H-pyrazolo[3,4-c]pyridine-4-carboxylic acid 4-[methyl-(tetrahydropyran-4-yl)-sulfamoyl]-benzylamide] | 2
O=C(NCc1ccc(CS(=O)(=O)N2CCOCC2)cc1)c1cncc2c1cnn2-c1ccc(F)cc1 [1-(4-Fluorophenyl)-1H-pyrazolo[3,4-c]pyridine-4-carboxylic acid 4-(morpholine-4-sulfonylmethyl)-benzylamide] | 20
C[C@@H](CO)NS(=O)(=O)c1ccc(CNC(=O)c2cncc3c2cnn3-c2ccc(F)cc2)cc1 [1-(4-Fluorophenyl)-1H-pyrazolo[3,4-c]pyridine-4-carboxylic acid 4-((S)-2-hydroxy-1-methyl-ethylsulfamoyl)-benzylamide] | 2
C[C@H](CO)NS(=O)(=O)c1ccc(CNC(=O)c2cncc3c2cnn3-c2ccc(F)cc2)cc1 [1-(4-Fluorophenyl)-1H-pyrazolo[3,4-c]pyridine-4-carboxylic acid 4-((R)-2-hydroxy-1-methyl-ethylsulfamoyl)-benzylamide] | 2
CC[C@H](NC(=O)c1cncc2c1cnn2-c1ccc(Cl)cc1)c1cncc(S(C)(=O)=O)c1 [1-(4-Chlorophenyl)-1H-pyrazolo[3,4-c]pyridine-4-carboxylic acid [(S)-1-(5-methanesulfonyl-pyridin-3-yl)-propyl]-amide] | 0.4
CN1CCC(N(C)S(=O)(=O)c2ccc(CNC(=O)c3cncc4c3cnn4-c3ccc(F)cc3)cc2)CC1 [1-(4-Fluorophenyl)-1H-pyrazolo[3,4-c]pyridine-4-carboxylic acid 4-[methyl-(1-methyl-piperidin-4-yl)-sulfamoyl]-benzylamide] | 5
O=C(NCc1ccc(S(=O)(=O)N2CCOCC2)nc1)c1cncc2c1cnn2-c1ccc(F)cc1 [1-(4-Fluorophenyl)-1H-pyrazolo[3,4-c]pyridine-4-carboxylic acid [6-(morpholine-4-sulfonyl)-pyridin-3-ylmethyl]-amide] | 18
CC(C)(CO)NS(=O)(=O)c1ccc(CNC(=O)c2cncc3c2cnn3-c2ccc(F)cc2)cc1 [1-(4-Fluorophenyl)-1H-pyrazolo[3,4-c]pyridine-4-carboxylic acid 4-(2-hydroxy-1,1-dimethyl-ethylsulfamoyl)-benzylamide] | 0.9
CCC[C@H](NC(=O)c1cncc2c1cnn2-c1ccc(F)cc1)c1cncc(S(=O)(=O)CCC(=O)O)c1 [3-[5-((S)-1-{[1-(4-Fluorophenyl)-1H-pyrazolo[3,4-c]pyridine-4-carbonyl]-amino}-butyl)-pyridine-3-sulfonyl]-propionic acid] | 17
CC(CO)NS(=O)(=O)c1ccc(CNC(=O)c2cncc3c2cnn3-c2ccc(F)cc2)cc1 (centres unmarked) [1-(4-Fluorophenyl)-1H-pyrazolo[3,4-c]pyridine-4-carboxylic acid 4-(2-hydroxy-1-methyl-ethylsulfamoyl)-benzylamide] | 2
C[C@H](NC(=O)c1cncc2c1cnn2-c1ccc(Cl)cc1)c1cncc(S(C)(=O)=O)c1 [1-(4-Chlorophenyl)-1H-pyrazolo[3,4-c]pyridine-4-carboxylic acid [(S)-1-(5-methanesulfonyl-pyridin-3-yl)-ethyl]-amide] | 4
CCCC(NC(=O)c1cncc2c1cnn2-c1ccc(F)cc1)c1cncc(S(=O)(=O)CCC(=O)OC)c1 (centres unmarked) [3-[5-(1-{[1-(4-Fluorophenyl)-1H-pyrazolo[3,4-c]pyridine-4-carbonyl]-amino}-butyl)-pyridine-3-sulfonyl]-propionic acid methyl ester] | 3
COc1cc(S(C)(=O)=O)ccc1CNC(=O)c1cncc2c1cnn2-c1ccc(F)cc1 [1-(4-Fluorophenyl)-1H-pyrazolo[3,4-c]pyridine-4-carboxylic acid 4-methanesulfonyl-2-methoxy-benzylamide] | 10
O=C1CN(S(=O)(=O)c2ccc(CNC(=O)c3cncc4c3cnn4-c3ccc(F)cc3)cc2)CCN1 [1-(4-Fluorophenyl)-1H-pyrazolo[3,4-c]pyridine-4-carboxylic acid 4-(3-oxo-piperazine-1-sulfonyl)-benzylamide] | 3
